For 26 compounds, IC50 results are on record in patent US20100292205A1, “Pyrimidone Compounds As GSK-3 Inhibitors” (PFIZER INC., priority 2006, published 2010).

The term IC50 denotes the concentration at which inhibition is half-maximal.

Each structure is given as a SMILES string.

For this assay, the target named is T1, Recombinant human GSK3β (Homo sapiens, UniProt P49841).
T1 construct: His-tag; made in house; host or cells: Sf9 insect cells / baculovirus
T1 sequence (P49841 whole entry): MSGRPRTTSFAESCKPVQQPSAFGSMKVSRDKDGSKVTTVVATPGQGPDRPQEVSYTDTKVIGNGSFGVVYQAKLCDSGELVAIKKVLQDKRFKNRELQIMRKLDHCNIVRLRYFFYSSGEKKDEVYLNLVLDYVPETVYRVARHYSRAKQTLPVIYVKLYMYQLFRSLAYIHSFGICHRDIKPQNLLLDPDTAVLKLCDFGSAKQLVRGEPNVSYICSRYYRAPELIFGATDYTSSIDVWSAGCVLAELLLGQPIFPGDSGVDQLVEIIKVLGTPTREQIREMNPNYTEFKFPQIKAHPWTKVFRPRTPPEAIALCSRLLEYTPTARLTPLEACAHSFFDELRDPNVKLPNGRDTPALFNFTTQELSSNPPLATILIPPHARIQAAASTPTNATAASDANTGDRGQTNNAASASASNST
Kind of assay: GSK-3β (Glycogen Synthase Kinase) cell free enzyme assay. The format is biochemical. To be noted: cell free enzyme assay; Examples 62-155. In short, it runs like this: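 This cell-free kinase assay measured [33P] transfer from [33P]ATP gamma phosphate into the biotinylated peptide bio-LC-S-R-H-S-S-P-H-Q-pS-E-D-E-E-E-OH. After 60 min at RT, reactions were stopped with 0.66 volume of PBS lacking Ca or Mg containing 12.5 mM EDTA, 0.25% Triton-X 100, 125 uM ATP and 6.2 mg/ml streptavidin SPA beads. Bead-bound radioactivity was counted as CPM on a Trilux scintillation counter.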
In the case of `CN(c1nc(-c2ccncc2F)cc(=O)n1C)[C@H]1[C@@H]2CN(C(=O)c3ccccc3C(F)(F)F)C[C@@H]21` [Example 98, 6-(3-Fluoropyridin-4-yl)-3-methyl-2-(methyl{(1R,5S,6s)-3-[2-(trifluoromethyl)benzoyl]-3-azabicyclo[3.1.0]hex-6-yl}amino)pyrimidin-4(3H)-one], the IC50 is 4.39 nM.

Regarding `COc1cccc(C(=O)N2C[C@@H]3[C@H](C2)[C@H]3N(C)c2nc(-c3ccncc3F)cc(=O)n2C)c1` [Example 99, 6-(3-Fluoropyridin-4-yl)-2-{[(1R,5S,6s)-3-(3-methoxybenzoyl)-3-azabicyclo[3.1.0]hex-6-yl](methyl)amino}-3-methylpyrimidin-4(3H)-one], the IC50 was determined as 1.46 nM.

As for `CCCC(C)C(=O)N1C[C@@H]2[C@H](C1)[C@H]2N(C)c1nc(-c2ccncc2F)cc(=O)n1C` (stereo partly drawn) [Example 100, 6-(3-Fluoropyridin-4-yl)-3-methyl-2-{methyl[(1R,5S,6s)-3-(2-methylpentanoyl)-3-azabicyclo[3.1.0]hex-6-yl]amino}pyrimidin-4(3H)-one], the IC50 was 9.02 nM.

As to `COc1cccc(CC(=O)N2C[C@@H]3[C@H](C2)[C@H]3N(C)c2nc(-c3ccncc3F)cc(=O)n2C)c1` [Example 101, 6-(3-Fluoropyridin-4-yl)-2-[{(1R,5S,6s)-3-[(3-methoxyphenyl)acetyl]-3-azabicyclo[3.1.0]hex-6-yl}(methyl)amino]-3-methylpyrimidin-4(3H)-one], the IC50 worked out at 13.6 nM.

In the case of `CSCCC(=O)N1C[C@@H]2[C@H](C1)[C@H]2N(C)c1nc(-c2ccncc2F)cc(=O)n1C` [Example 102, 6-(3-Fluoropyridin-4-yl)-3-methyl-2-(methyl{(1R,5S,6s)-3-[3-(methylthio)propanoyl]-3-azabicyclo[3.1.0]hex-6-yl}amino)pyrimidin-4(3H)-one], the IC50 came to 16 nM.

Regarding `CCC(C)C(=O)N1C[C@@H]2[C@H](C1)[C@H]2N(C)c1nc(-c2ccncc2F)cc(=O)n1C` (stereo partly drawn) [Example 103, 6-(3-Fluoropyridin-4-yl)-3-methyl-2-{methyl[(1R,5S,6s)-3-(2-methylbutanoyl)-3-azabicyclo[3.1.0]hex-6-yl]amino}pyrimidin-4(3H)-one], the IC50 was found to be 2.77 nM.

For `Cc1cc(C(=O)N2C[C@@H]3[C@H](C2)[C@H]3N(C)c2nc(-c3ccncc3F)cc(=O)n2C)cc(Cl)n1` [Example 104, 2-{[(1R,5S,6s)-3-(2-Chloro-6-methylisonicotinoyl)-3-azabicyclo[3.1.0]hex-6-yl](methyl)amino}-6-(3-fluoropyridin-4-yl)-3-methylpyrimidin-4(3H)-one], the IC50 turned out to be 16.1 nM.

Take `CN(c1nc(-c2ccncc2F)cc(=O)n1C)[C@H]1[C@@H]2CN(C(=O)c3ccoc3)C[C@@H]21` [Example 105, 6-(3-Fluoropyridin-4-yl)-2-{[(1R,5S,6s)-3-(3-furoyl)-3-azabicyclo[3.1.0]hex-6-yl](methyl)amino}-3-methylpyrimidin-4(3H)-one]: the half-inhibitory concentration (IC50) came out at 8.81 nM.

In the case of `COc1ccccc1C(=O)N1C[C@@H]2[C@H](C1)[C@H]2N(C)c1nc(-c2ccncc2F)cc(=O)n1C` [Example 106, 6-(3-Fluoropyridin-4-yl)-2-{[(1R,5S,6s)-3-(2-methoxybenzoyl)-3-azabicyclo[3.1.0]hex-6-yl](methyl)amino}-3-methylpyrimidin-4(3H)-one], the IC50 turned out to be 0.91 nM.

Turning to `CN(c1nc(-c2ccncc2F)cc(=O)n1C)[C@H]1[C@@H]2CN(C(=O)C3CCC3)C[C@@H]21` [Example 107, 2-{[(1R,5S,6s)-3-(Cyclobutylcarbonyl)-3-azabicyclo[3.1.0]hex-6-yl](methyl)amino}-6-(3-fluoropyridin-4-yl)-3-methylpyrimidin-4(3H)-one], the IC50 worked out at 18.4 nM.

Regarding `CN(c1nc(-c2ccncc2F)cc(=O)n1C)[C@H]1[C@@H]2CN(C(=O)C3CCCC3)C[C@@H]21` [Example 108, 2-{[(1R,5S,6s)-3-(Cyclopentylcarbonyl)-3-azabicyclo[3.1.0]hex-6-yl](methyl)amino}-6-(3-fluoropyridin-4-yl)-3-methylpyrimidin-4(3H)-one], the IC50 came to 6.39 nM.

On to `COc1ccc(CC(=O)N2C[C@@H]3[C@H](C2)[C@H]3N(C)c2nc(-c3ccncc3F)cc(=O)n2C)cc1` [Example 109, 6-(3-Fluoropyridin-4-yl)-2-[{(1R,5S,6s)-3-[(4-methoxyphenyl)acetyl]-3-azabicyclo[3.1.0]hex-6-yl}(methyl)amino]-3-methylpyrimidin-4(3H)-one], for which the IC50 stood at 4.03 nM.

In the case of `CC(C)CC(=O)N1C[C@@H]2[C@H](C1)[C@H]2N(C)c1nc(-c2ccncc2F)cc(=O)n1C` [Example 110, 6-(3-Fluoropyridin-4-yl)-3-methyl-2-{methyl[(1R,5S,6s)-3-(3-methylbutanoyl)-3-azabicyclo[3.1.0]hex-6-yl]amino}pyrimidin-4(3H)-one], the IC50 worked out at 18.3 nM.

Consider `CN(c1nc(-c2ccncc2F)cc(=O)n1C)[C@H]1[C@@H]2CN(C(=O)c3cccnc3Cl)C[C@@H]21` [Example 111, 2-[{(1R,5S,6s)-3-[(2-Chloropyridin-3-yl)carbonyl]-3-azabicyclo[3.1.0]hex-6-yl}(methyl)amino]-6-(3-fluoropyridin-4-yl)-3-methylpyrimidin-4(3H)-one], for which the IC50 was determined as 2.2 nM.

`CN(c1nc(-c2ccncc2F)cc(=O)n1C)[C@H]1[C@@H]2CN(C(=O)c3ccnc(Cl)c3)C[C@@H]21` [Example 112, 2-{[(1R,5S,6s)-3-(2-Chloroisonicotinoyl)-3-azabicyclo[3.1.0]hex-6-yl](methyl)amino}-6-(3-fluoropyridin-4-yl)-3-methylpyrimidin-4(3H)-one]: the IC50 is 2.63 nM.

For the compound `CN(c1nc(-c2ccncc2F)cc(=O)n1C)[C@H]1[C@@H]2CN(C(=O)c3ccc(OC(F)F)cc3)C[C@@H]21` [Example 113, 2-[{(1R,5S,6s)-3-[4-(Difluoromethoxy)benzoyl]-3-azabicyclo[3.1.0]hex-6-yl}(methyl)amino]-6-(3-fluoropyridin-4-yl)-3-methylpyrimidin-4(3H)-one], the IC50 was 8.57 nM.

As for `CC(C)C(=O)N1C[C@@H]2[C@H](C1)[C@H]2N(C)c1nc(-c2ccncc2F)cc(=O)n1C` [Example 114, 6-(3-Fluoropyridin-4-yl)-2-{[(1R,5S,6s)-3-isobutyryl-3-azabicyclo[3.1.0]hex-6-yl](methyl)amino}-3-methylpyrimidin-4(3H)-one], the IC50 is 15.3 nM.

Regarding `CN(c1nc(-c2ccncc2F)cc(=O)n1C)[C@H]1[C@@H]2CN(C(=O)Cc3ccccc3)C[C@@H]21` [Example 115, 6-(3-Fluoropyridin-4-yl)-3-methyl-2-{methyl[(1R,5S,6s)-3-(phenylacetyl)-3-azabicyclo[3.1.0]hex-6-yl]amino}pyrimidin-4(3H)-one], the IC50 turned out to be 14.2 nM.

With `CN(c1nc(-c2ccncc2F)cc(=O)n1C)[C@H]1[C@@H]2CN(C(=O)c3cc(Cl)cc(Cl)c3)C[C@@H]21` [Example 116, 2-{[(1R,5S,6s)-3-(3,5-Dichlorobenzoyl)-3-azabicyclo[3.1.0]hex-6-yl](methyl)amino}-6-(3-fluoropyridin-4-yl)-3-methylpyrimidin-4(3H)-one], the IC50 is 4.4 nM.

In the case of `CN(c1nc(-c2ccncc2F)cc(=O)n1C)[C@H]1[C@@H]2CN(C(=O)c3c(F)cc(F)cc3F)C[C@@H]21` [Example 117, 6-(3-Fluoropyridin-4-yl)-3-methyl-2-{methyl[(1R,5S,6s)-3-(2,4,6-trifluorobenzoyl)-3-azabicyclo[3.1.0]hex-6-yl]amino}pyrimidin-4(3H)-one], the IC50 came to 1.84 nM.

Consider `CN(c1nc(-c2ccncc2F)cc(=O)n1C)[C@H]1[C@@H]2CN(C(=O)c3ccccc3F)C[C@@H]21` [Example 118, 2-{[(1R,5S,6s)-3-(2-Fluorobenzoyl)-3-azabicyclo[3.1.0]hex-6-yl](methyl)amino}-6-(3-fluoropyridin-4-yl)-3-methylpyrimidin-4(3H)-one], for which the IC50 worked out at 1.11 nM.

For `CC(=O)O[C@@H](C)C(=O)N1C[C@@H]2[C@H](C1)[C@H]2N(C)c1nc(-c2ccncc2F)cc(=O)n1C` [Example 119, (1S)-2-[(1R,5S,6R)-6-{[4-(3-Fluoropyridin-4-yl)-1-methyl-6-oxo-1,6-dihydropyrimidin-2-yl](methyl)amino}-3-azabicyclo[3.1.0]hex-3-yl]-1-methyl-2-oxoethyl acetate], the IC50 worked out at 32.9 nM.

Regarding `CN(c1nc(-c2ccncc2F)cc(=O)n1C)[C@H]1[C@@H]2CN(C(=O)c3cnn(C)c3Cl)C[C@@H]21` [Example 120, 2-[{(1R,5S,6s)-3-[(5-Chloro-1-methyl-1H-pyrazol-4-yl)carbonyl]-3-azabicyclo[3.1.0]hex-6-yl}(methyl)amino]-6-(3-fluoropyridin-4-yl)-3-methylpyrimidin-4(3H)-one], the IC50 is 4.52 nM.

As to `CN(c1nc(-c2ccncc2F)cc(=O)n1C)[C@H]1[C@@H]2CN(C(=O)C(C)(C)C)C[C@@H]21` [Example 121, 2-{[(1R,5S,6s)-3-(2,2-Dimethylpropanoyl)-3-azabicyclo[3.1.0]hex-6-yl](methyl)amino}-6-(3-fluoropyridin-4-yl)-3-methylpyrimidin-4(3H)-one], the IC50 worked out at 1.41 nM.

On to `CN(c1nc(-c2ccncc2F)cc(=O)n1C)[C@H]1[C@@H]2CN(C(=O)c3ccc(C(F)(F)F)cc3)C[C@@H]21` [Example 122, 6-(3-Fluoropyridin-4-yl)-3-methyl-2-(methyl{(1R,5S,6s)-3-[4-(trifluoromethyl)benzoyl]-3-azabicyclo[3.1.0]hex-6-yl}amino)pyrimidin-4(3H)-one], for which the IC50 worked out at 15.1 nM.

Turning to `CCCCOc1ccc(C(=O)N2C[C@@H]3[C@H](C2)[C@H]3N(C)c2nc(-c3ccncc3F)cc(=O)n2C)cc1` [Example 123, 2-{[(1R,5S,6s)-3-(4-Butoxybenzoyl)-3-azabicyclo[3.1.0]hex-6-yl](methyl)amino}-6-(3-fluoropyridin-4-yl)-3-methylpyrimidin-4(3H)-one], the IC50 worked out at 13.6 nM.
